Data taken from patent US20250346606A1, “CAMPTOTHECIN COMPOUND, PREPARATION METHOD THEREFOR, AND APPLICATION THEREOF” (SICHUAN KELUN-BIOTECH BIOPHARMACEUTICAL CO., LTD., priority 2021, published 2025).
Read-outs that look alike come from different tables or passages of the source.

How the values were obtained:
Type in all cases: cell-based, Human
NCI-H358 cells = assay: Inhibitory effect of compounds on NCI-H358 cell proliferation
In short: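 Adherent NCI-H358 cells were exposed to compound for 72 h, then viability was read by luminescence (Cell Counting-Lite 2.0). Inhibition calculated from RLU relative to cell-free background and vehicle wells; IC50 from a four-parameter fit.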

A549 cells = assay: Inhibitory effect of compounds on A549 cell proliferation; conditions: read-out: IC50, inhibitory activity on A549 cell proliferation
Hela cells = assay: Inhibitory effect of compounds on Hela cell proliferation; conditions: read-out: IC50, inhibitory activity on Hela cell proliferation
Jeko-1 cells = assay: Inhibitory effect of compounds on Jeko-1 cell proliferation; conditions: read-out: IC50, inhibitory activity on Jeko-1 cell proliferation
In short: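 After 72 h incubation with compound, Jeko-1 cell viability was measured by Cell Counting-Lite 2.0 luminescence (10 min reaction). Inhibition was calculated relative to vehicle and cell-free background RLU, and IC50 was obtained by four-parameter curve fitting.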

[1] = Homo sapiens, NCI-H358, 72 h, read-out: IC50, inhibitory activity on NCI-H358 cell proliferation, NCI-H358 human non-small cell lung cancer cells, 72 h incubation, Cell Counting-Lite 2.0

CC[C@@]1(O)C(=O)OCc2c1cc1n(c2=O)Cc2c-1nc1cc(Cl)c(C)c3c1c2[C@@H](NC(=O)[C@@H](O)C1CC1)CC3 [Example 5 (2-12-A), (2S)—N-((1S,9S)-5-chloro-9-ethyl-9-hydroxy-4-methyl-10,13-dioxo-2,3,9,10,13,15-hexahydro-1H,12H-benzo[de]pyrano[3′,4′:6,7]indolizino[1,2-b]quinolin-1-yl)-2-cyclopropyl-2-hydroxyacetamide] gave an IC50 (NCI-H358 cells; [1]) of 17.6 nM, an IC50 (A549 cells; Homo sapiens, A549, 72 h) of 6.96 nM and an IC50 (Hela cells; Homo sapiens, HeLa, 72 h) of 13.2 nM.

CC[C@@]1(O)C(=O)OCc2c1cc1n(c2=O)Cc2c-1nc1cc(Cl)c(C)c3c1c2[C@H](NC(=O)[C@@H](O)C1CC1)CC3 [Example 5 (2-12-B), (2S)—N-((1R,9S)-5-chloro-9-ethyl-9-hydroxy-4-methyl-10,13-dioxo-2,3,9,10,13,15-hexahydro-1H,12H-benzo[de]pyrano[3′,4′:6,7]indolizino[1,2-b]quinolin-1-yl)-2-cyclopropyl-2-hydroxyacetamide] was tested, and the IC50 (NCI-H358 cells; [1]) was 15.8 nM, the IC50 (A549 cells; Homo sapiens, A549, 72 h) was 5.52 nM and the IC50 (Hela cells; Homo sapiens, HeLa, 72 h) was 16.7 nM.

In the case of “(2S)—N-((1S,9S)-5-chloro-9-ethyl-9-hydroxy-4-methyl-10,13-dioxo-2,3,9,10,13,15-hexahydro-1H,12H-benzo[de]pyrano[3′,4′:6,7]indolizino[1,2-b]quinolin-1-yl)-2-hydroxypropylamine [Example 4 (2-7-A)]”, the IC50 (Jeko-1 cells; Jeko-1 human mantle cell lymphoma cells, 72 h incubation, Cell Counting-Lite 2.0) is reported as 0.28 nM, the IC50 (NCI-H358 cells; NCI-H358 human non-small cell lung cancer cells, 72 h incubation, Cell Counting-Lite 2.0, read-out: IC50, inhibitory activity on NCI-H358 cell proliferation) is reported as 35.4 nM and the IC50 (A549 cells; A549 human lung cancer cells, 72 h incubation, Cell Counting-Lite 2.0) is reported as 6.97 nM. It also gave an IC50 (Hela cells; Hela human cervical cancer cells, 72 h incubation, Cell Counting-Lite 2.0) of 13.8 nM.

In the case of CC#C[C@@H](O)C(=O)N[C@H]1CCc2c(C)c(F)cc3nc4c(c1c23)Cn1c-4cc2c(c1=O)COC(=O)[C@]2(O)CC [Example 1 (1-1-A), (R)—N-((1S,9S)-9-ethyl-5-fluoro-9-hydroxy-4-methyl-10,13-dioxo-2,3,9,10,13,15-hexahydro-1H,12H-benzo[de]pyrano[3′,4′:6,7]indolizino[1,2-b]quinolin-1-yl)-2-hydroxypent-3-yneamide], the IC50 (Jeko-1 cells; Homo sapiens, JeKo-1, 72 h) is reported as 1.33 nM, the IC50 (NCI-H358 cells; [1]) is reported as 65.2 nM and the IC50 (A549 cells; Homo sapiens, A549, 72 h) is reported as 66.6 nM. It also gave an IC50 (Hela cells; Homo sapiens, HeLa, 72 h) of 4.57 nM.
